Source: ChEMBL document CHEMBL4017543, “Inhibitors to Overcome Secondary Mutations in the Stem Cell Factor Receptor KIT” (J Med Chem, 2017)

Assays:
[1] = Protein binding in mouse plasma at 5 uM after 6 hrs by equilibrium dialysis method; assay type: ADME, cell-free; conditions: read-out: PPB (converted)
[2] = biological target: Mast/stem cell growth factor receptor Kit (Homo sapiens, UniProt P10721, T670I/V559D)
[3] = Metabolic stability in mouse plasma assessed as compound remaining at 5 uM after 60 mins by LC-MS analysis; assay type: ADME, cell-free; conditions: read-out: Stability
[4] = biological target: Mast/stem cell growth factor receptor Kit (Homo sapiens, UniProt P10721, V559D/V654A)
Sequence of Mast/stem cell growth factor receptor Kit (Homo sapiens, UniProt P10721, V559D/V654A) (P10721 26-976 V559D/V654A limits assumed): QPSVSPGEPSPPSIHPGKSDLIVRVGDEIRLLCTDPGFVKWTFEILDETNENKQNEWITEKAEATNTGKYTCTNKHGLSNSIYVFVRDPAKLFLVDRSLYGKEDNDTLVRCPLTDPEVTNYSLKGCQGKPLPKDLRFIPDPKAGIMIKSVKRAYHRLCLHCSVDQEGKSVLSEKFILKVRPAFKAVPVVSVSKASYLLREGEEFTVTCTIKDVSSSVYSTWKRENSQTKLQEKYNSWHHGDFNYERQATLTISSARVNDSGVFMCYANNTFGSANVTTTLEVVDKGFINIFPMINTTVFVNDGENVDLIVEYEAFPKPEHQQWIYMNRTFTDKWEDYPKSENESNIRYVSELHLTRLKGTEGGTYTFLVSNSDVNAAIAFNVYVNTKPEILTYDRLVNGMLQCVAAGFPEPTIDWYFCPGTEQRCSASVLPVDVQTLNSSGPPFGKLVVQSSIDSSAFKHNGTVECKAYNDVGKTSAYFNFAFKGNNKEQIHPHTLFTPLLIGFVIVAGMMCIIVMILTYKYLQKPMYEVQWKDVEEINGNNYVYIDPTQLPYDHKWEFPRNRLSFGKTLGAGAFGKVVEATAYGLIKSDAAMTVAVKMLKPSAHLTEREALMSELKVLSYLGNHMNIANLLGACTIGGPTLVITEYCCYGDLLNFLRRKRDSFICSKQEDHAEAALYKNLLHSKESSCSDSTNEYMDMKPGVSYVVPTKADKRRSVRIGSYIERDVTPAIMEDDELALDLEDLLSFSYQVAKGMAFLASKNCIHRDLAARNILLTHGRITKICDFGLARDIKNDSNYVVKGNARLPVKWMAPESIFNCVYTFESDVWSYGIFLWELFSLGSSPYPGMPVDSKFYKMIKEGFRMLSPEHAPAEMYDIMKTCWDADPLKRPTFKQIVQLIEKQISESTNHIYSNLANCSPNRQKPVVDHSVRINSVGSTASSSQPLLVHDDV

GISTT1 [5] = test: Cytotoxicity against human GISTT1 cells harboring KIT T670I mutant assessed as cell growth inhibition after 72 hrs by CellTiterGlo assay; assay type: functional; conditions: GISTT1, 72 h
[6] = biological target: Mast/stem cell growth factor receptor Kit (Homo sapiens, UniProt P10721, D816H); test: Inhibition of KIT D816H mutant (unknown origin) using biotinylated poly-Glu-Tyr as substrate preincubated for 30 mins followed by substrate addition in presence of ATP by TR-FRET assay; conditions: read-out: IC50
Sequence of Mast/stem cell growth factor receptor Kit (Homo sapiens, UniProt P10721, D816H) (P10721 26-976 D816H limits assumed): as the sequence (P10721 26-976 V559D/V654A limits assumed) above, with D534V, A629V, D791H counted along it

[7] = Intrinsic clearance in human liver microsomes at 3 uM after 60 mins by LC-MS analysis; assay type: ADME, microsome; conditions: read-out: CLH
GISTT1 [8] = test: Cytotoxicity against human GISTT1 cells harboring KIT D816E mutant assessed as cell growth inhibition after 72 hrs by CellTiterGlo assay; assay type: functional; conditions: GISTT1, 72 h
[9] = Efflux ratio of apparent permeability across basolateral to apical over apical to basolateral side in human Caco2 cells at 10 uM after 2 hrs by LC-MS/MS; assay type: ADME, cell-based; conditions: Caco-2
[10] = biological target: Mast/stem cell growth factor receptor Kit (Homo sapiens, UniProt P10721); test: Inhibition of wild type KIT (unknown origin) using biotinylated poly-Glu-Tyr as substrate preincubated for 30 mins followed by substrate addition in presence of ATP by TR-FRET assay
Sequence of Mast/stem cell growth factor receptor Kit (Homo sapiens, UniProt P10721) (P10721 whole entry): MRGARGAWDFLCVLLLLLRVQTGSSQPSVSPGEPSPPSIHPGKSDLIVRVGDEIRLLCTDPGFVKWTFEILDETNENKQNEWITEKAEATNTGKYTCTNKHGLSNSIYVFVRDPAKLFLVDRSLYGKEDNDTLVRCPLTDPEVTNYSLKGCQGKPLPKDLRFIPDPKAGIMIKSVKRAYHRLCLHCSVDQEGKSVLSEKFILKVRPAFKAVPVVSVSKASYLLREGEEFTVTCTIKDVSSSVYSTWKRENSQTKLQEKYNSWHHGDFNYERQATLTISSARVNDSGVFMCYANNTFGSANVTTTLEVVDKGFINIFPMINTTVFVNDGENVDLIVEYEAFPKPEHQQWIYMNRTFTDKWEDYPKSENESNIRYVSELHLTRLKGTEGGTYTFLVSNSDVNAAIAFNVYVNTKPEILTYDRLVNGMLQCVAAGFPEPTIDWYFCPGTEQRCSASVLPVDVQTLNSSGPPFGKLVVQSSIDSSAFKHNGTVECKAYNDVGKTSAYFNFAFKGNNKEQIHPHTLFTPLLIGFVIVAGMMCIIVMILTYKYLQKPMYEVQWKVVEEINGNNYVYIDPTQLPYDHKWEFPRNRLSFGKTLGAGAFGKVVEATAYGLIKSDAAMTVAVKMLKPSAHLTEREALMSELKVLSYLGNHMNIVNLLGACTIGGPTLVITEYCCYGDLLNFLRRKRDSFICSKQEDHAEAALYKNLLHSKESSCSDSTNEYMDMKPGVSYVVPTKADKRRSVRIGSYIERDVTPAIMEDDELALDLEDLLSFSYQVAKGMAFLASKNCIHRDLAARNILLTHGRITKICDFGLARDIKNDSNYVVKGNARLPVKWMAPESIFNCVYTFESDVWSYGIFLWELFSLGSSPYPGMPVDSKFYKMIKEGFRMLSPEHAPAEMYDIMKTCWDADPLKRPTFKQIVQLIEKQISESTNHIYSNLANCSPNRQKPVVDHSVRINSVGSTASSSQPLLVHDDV

[11] = Metabolic stability in human plasma assessed as compound remaining at 5 uM after 60 mins by LC-MS analysis; assay type: ADME, cell-free; conditions: read-out: Stability
[12] = Protein binding in human plasma at 5 uM after 6 hrs by equilibrium dialysis method; assay type: ADME, cell-free; conditions: read-out: PPB (converted)
GISTT1 [13] = test: Cytotoxicity against human GISTT1 cells assessed as cell growth inhibition after 72 hrs by CellTiterGlo assay; assay type: functional; conditions: GISTT1, 72 h
[14] = Cytotoxicity against human GIST48B cells assessed as cell growth inhibition after 72 hrs by CellTiterGlo assay; assay type: cell-based; conditions: GIST48B cells
[15] = system: Mast/stem cell growth factor receptor Kit (Homo sapiens), P10721 [V654A]; conditions: GIST430
Sequence of Mast/stem cell growth factor receptor Kit (Homo sapiens), P10721 [V654A] (P10721 whole entry V654A): as the sequence (P10721 whole entry) above, with V654A counted along it

[16] = Intrinsic clearance in mouse liver microsomes at 3 uM after 60 mins by LC-MS analysis; assay type: ADME, microsome; conditions: read-out: CLH

Sequence of Mast/stem cell growth factor receptor Kit (Homo sapiens, UniProt P10721, T670I/V559D) (P10721 26-976 V559D/T670I limits assumed): as the sequence (P10721 26-976 V559D/V654A limits assumed) above, with A629V, T645I counted along it

fraction unbound at 6 h, 5 µM [1] | IC50 [2] [nM] | remaining at 1 h, 5 µM [3] [%] | IC50 [4] [nM] | IC50 [6] [nM] | microsomal CLint at 3 µM [7] [µL/min/mg] | efflux ratio at 2 h, 10 µM [9] | IC50 [10] [nM] | remaining at 1 h, 5 µM [11] [%] | fraction unbound at 6 h, 5 µM [12] | GI50 [15] [nM] | microsomal CLint at 3 µM [16] [µL/min/mg] | Structure (SMILES) | GI50 (GISTT1 [5]) [nM] | GI50 (GISTT1 [8]) [nM] | GI50 (GISTT1 [13]) [nM] | GI50 at 72 h [14] [µM]
0.004 | 21.4 | 50 | 247 | 42.2 | 1 | < 1 | 1.9 | 91 | 0.004 | 51 | – | Cc1ccc(C(=O)Nc2ccc(CN3CCN(C)CC3)c(C(F)(F)F)c2)cc1C#Cc1cnc(N)nc1 | 44 | 141 | 23 | 2.02
0.016 | 21 | 84 | 1080 | 326 | 9 | < 1 | 6.2 | 59 | 0.016 | 308 | 36 | Cc1c(C#Cc2cnc(N)nc2)cccc1C(=O)Nc1ccc(CN2CCN(C)CC2)c(C(F)(F)F)c1 | 51 | 381 | 35 | 15.8
